Source: PubChem BioAssay AID328 (DTP/NCI, 2004)
“And” between values parts separate entries of the source, which are not always exact repeats. Equal entries are not always repeated. Toxic doses and inconclusive results are not listed. Residues, ends and D or L forms follow the SMILES beside them. *: point of attachment. Cbz = O=C(OCc1ccccc1)*; Bn = c1ccc(C*)cc1

Tested on: BDF1 mice, P388 leukemia ip, median survival T/C
Assay: NCI In Vivo Anticancer Drug Screen. Data for tumor model P388 Leukemia (intraperitoneal) in B6D2F1 (BDF1) mice
Conditions: endpoint: median survival time, higher = longer survival
Experimental: The antitumor activity of compounds was measured in mice bearing transplantable tumors. Survival or tumor size were measured and the results are expressed as the measurement made in the treated group (T) divided by the measurement made in the vehicle treated control group (C). The tumor model used in this assay is P388 Leukemia (intraperitoneal) in B6D2F1 (BDF1) mice

[1] = dose: 25.0 mg/kg/injection, schedule: Q04DX003 (ip), vehicle: saline with Tween-80
[2] = dose: 50.0 mg/kg/injection, schedule: Q04DX003 (ip), vehicle: saline with Tween-80
[3] = dose: 100.0 mg/kg/injection, schedule: Q04DX003 (ip), vehicle: saline with Tween-80
[4] = dose: 50.0 mg/kg/injection, schedule: Q01DX009 (ip), vehicle: saline
[5] = dose: 50.0 mg/kg/injection, schedule: Q04DX003 (ip), vehicle: saline
[6] = dose: 100.0 mg/kg/injection, schedule: Q01DX009 (ip), vehicle: saline
[7] = dose: 100.0 mg/kg/injection, schedule: Q04DX003 (ip), vehicle: saline
[8] = dose: 200.0 mg/kg/injection, schedule: Q01DX009 (ip), vehicle: saline
[9] = dose: 200.0 mg/kg/injection, schedule: Q04DX003 (ip), vehicle: saline
[10] = dose: 400.0 mg/kg/injection, schedule: Q01DX009 (ip), vehicle: saline
[11] = dose: 400.0 mg/kg/injection, schedule: Q04DX003 (ip), vehicle: saline
[12] = dose: 12.5 mg/kg/injection, schedule: Q01DX009 (ip), vehicle: saline
[13] = dose: 100.0 mg/kg/injection, schedule: Q01DX009 (ip), vehicle: Klucel (hydroxypropylcellulose) (HPC)
[14] = dose: 200.0 mg/kg/injection, schedule: Q01DX009 (ip), vehicle: Klucel (hydroxypropylcellulose) (HPC)
[15] = dose: 400.0 mg/kg/injection, schedule: Q01DX009 (ip), vehicle: Klucel (hydroxypropylcellulose) (HPC)
[16] = dose: 50.0 mg/kg/injection, schedule: Q01DX009 (ip), vehicle: saline with Tween-80
[17] = dose: 100.0 mg/kg/injection, schedule: Q01DX009 (ip), vehicle: saline with Tween-80
[18] = dose: 200.0 mg/kg/injection, schedule: Q01DX009 (ip), vehicle: saline with Tween-80
[19] = dose: 6.25 mg/kg/injection, schedule: Q04DX003 (ip), vehicle: saline with Tween-80
[20] = dose: 12.5 mg/kg/injection, schedule: Q04DX003 (ip), vehicle: saline with Tween-80

With `CC(C)CNC(=S)N/N=C\C=N/NC(=S)NCC(C)C` the T/C (dose: 75.0 mg/kg/injection, schedule: Q01DX009 (ip), vehicle: saline with Tween-80) was 98 % of control and the T/C (dose: 150.0 mg/kg/injection, schedule: Q01DX009 (ip), vehicle: saline with Tween-80) was 91 % of control.

For `COc1ccccc1OC(=O)Nc1ccc(C)c([N+](=O)[O-])c1`, the T/C [1] was 100 % of control, the T/C [2] was 104 % of control and the T/C [3] was 100 % of control.

`CC(C)CC(NC(=O)C1CCCN1C(=O)C(CSCc1ccccc1)NC(=O)C(CC(N)=O)NC(=O)C(CCC(N)=O)NC(=O)OCc1ccccc1)C(=O)NCC(N)=O` (configuration not stated) (Cbz-QNC(Bn)PLG-NH2; configuration not given here) was tested, and the T/C (dose: 100.0 mg/kg/injection, schedule: Q04DX003 (ip), vehicle: Klucel (hydroxypropylcellulose) (HPC)) was 105 % of control, the T/C (dose: 200.0 mg/kg/injection, schedule: Q04DX003 (ip), vehicle: Klucel (hydroxypropylcellulose) (HPC)) was 102 % of control and the T/C (dose: 400.0 mg/kg/injection, schedule: Q04DX003 (ip), vehicle: Klucel (hydroxypropylcellulose) (HPC)) was 98 % of control.

For `O=C(N[C@@H](c1ccccc1)[C@H](N=Cc1ccccc1)c1ccccc1)c1ccccc1`, the T/C [4] was 102 % of control, the T/C [5] was 91 % of control and the T/C [6] was 100 % of control. The T/C [7] was 92 % of control, the T/C [8] was 91 % of control and the T/C [9] was 91 % of control. For the same molecule, the T/C [10] was 94 % of control and the T/C [11] was 90 % of control.

In the case of `Nc1ccc(C(=O)Nc2ccc(N(CCCl)CCCl)cc2)cc1`, the T/C [12] is reported as 108 % of control, the T/C (dose: 25.0 mg/kg/injection, schedule: Q04DX003 (ip), vehicle: saline) is reported as 152 % of control and the T/C [4] is reported as 173 % of control. The T/C [5] was 216 % of control, the T/C [6] was 170 % of control and the T/C (dose: 150.0 mg/kg/injection, schedule: Q01DX009 (ip), vehicle: saline) was 92 % of control.

`CN(Nc1c([N+](=O)[O-])cc([N+](=O)[O-])cc1[N+](=O)[O-])c1ccc2ccccc2c1` was tested, and the T/C [13] was 120 % of control, the T/C [14] was 105 % of control and the T/C [15] was 110 % of control.

`Clc1ccc2c(c1)nnn2OC1CCCCCC1` was tested, and the T/C [16] was 101 % of control, the T/C [17] was 97 % of control and the T/C [18] was 108 % of control.

In the case of `C=CC(CO)N1CC1` (configuration not stated), the T/C [19] is reported as 100 % of control, the T/C [20] is reported as 112 % of control and the T/C [1] is reported as 104 % of control.

`[N-]=[N+]=NCC(=O)NCc1cnccn1` was tested, and the T/C [12] was 116 % of control, the T/C (dose: 25.0 mg/kg/injection, schedule: Q01DX009 (ip), vehicle: saline) was 116 % of control and the T/C [6] was 106 % of control. The T/C [7] was 109 % of control, the T/C [8] was 116 % of control and the T/C [9] was 108 % of control. For the same molecule, the T/C [10] was 119 % of control and the T/C [11] was 109 % of control.

`COC(=O)C(Sc1ccccc1N)C1SC(=S)N(Cc2ccccc2)C1=O` (configuration not stated) was tested, and the T/C [16] was 95 % of control, the T/C [17] was 104 % of control and the T/C [18] was 113 % of control.

`O=C(CCN1CC1)OCCOC(=O)CCN1CC1` was tested, and the T/C (dose: 1.5 mg/kg/injection, schedule: Q01DX009 (ip), vehicle: saline with Tween-80) was 112 % of control, the T/C (dose: 16.0 mg/kg/injection, schedule: Q04DX003 (ip), vehicle: saline with Tween-80) was 150 % of control and the T/C (dose: 21.0 mg/kg/injection, schedule: Q04DX003 (ip), vehicle: saline with Tween-80) was 163 % of control. The T/C (dose: 33.0 mg/kg/injection, schedule: Q04DX003 (ip), vehicle: saline with Tween-80) was 163 % of control, the T/C [2] was 195 % of control and the T/C (dose: 75.0 mg/kg/injection, schedule: Q04DX003 (ip), vehicle: saline with Tween-80) was 181 % of control.

With `CC(C)=CCCC(C)=C(C#N)C#N` the T/C [1] was 107 % of control, the T/C [2] was 105 % of control and the T/C [3] was 107 % of control.

`Cn1nnc(N/N=C/c2ccccc2)n1` was tested, and the T/C (dose: 3.12 mg/kg/injection, schedule: Q01DX009 (ip), vehicle: saline with Tween-80) was 102 % of control, the T/C (dose: 4.0 mg/kg/injection, schedule: Q01DX009 (ip), vehicle: saline with Tween-80) was 121 % of control and the T/C (dose: 6.25 mg/kg/injection, schedule: Q01DX009 (ip), vehicle: saline with Tween-80) was 93 % of control. For the same molecule, the T/C [19] was 112 % of control, the T/C (dose: 8.0 mg/kg/injection, schedule: Q01DX009 (ip), vehicle: saline with Tween-80) was 123 % of control and the T/C (dose: 12.0 mg/kg/injection, schedule: Q01DX009 (ip), vehicle: saline with Tween-80) was 120 % of control. The T/C (dose: 12.5 mg/kg/injection, schedule: Q01DX009 (ip), vehicle: saline with Tween-80) was 97 % of control and 107 % of control, the T/C [20] was 105 % of control and the T/C (dose: 16.0 mg/kg/injection, schedule: Q01DX009 (ip), vehicle: saline with Tween-80) was 98 % of control. The T/C (dose: 20.0 mg/kg/injection, schedule: Q01DX009 (ip), vehicle: saline with Tween-80) was 114 % of control, the T/C (dose: 25.0 mg/kg/injection, schedule: Q01DX009 (ip), vehicle: saline with Tween-80) was 100 % of control and 107 % of control and the T/C [1] was 99 % of control and 100 % of control.

With `O=[N+]([O-])c1ccc(N2[C@@H]3C4CCC([C@@H]32)C42OCCO2)cc1` the T/C (dose: 50.0 mg/kg/injection, schedule: Q01DX001 (ip), vehicle: saline with Tween-80) was 93 % of control, the T/C (dose: 100.0 mg/kg/injection, schedule: Q01DX001 (ip), vehicle: saline with Tween-80) was 118 % of control and the T/C (dose: 200.0 mg/kg/injection, schedule: Q01DX001 (ip), vehicle: saline with Tween-80) was 93 % of control.

`O=C(NN(c1ccc([N+](=O)[O-])cc1)c1ccc([N+](=O)[O-])cc1)c1ccccc1` was tested, and the T/C (dose: 50.0 mg/kg/injection, schedule: Q01DX009 (ip), vehicle: Klucel (hydroxypropylcellulose) (HPC)) was 100 % of control, the T/C [13] was 105 % of control and the T/C [14] was 105 % of control.

`CC1OC2CC(=O)OC2C2=C1C(=O)c1c(O)c3c(c(O)c1C2=O)C1CC(O)C3(O)C(C)O1` (configuration not stated) was tested, and the T/C (dose: 2.5 mg/kg/injection, schedule: Q01DX010 (ip), vehicle: saline) was 115 % of control, the T/C (dose: 5.0 mg/kg/injection, schedule: Q01DX010 (ip), vehicle: saline) was 115 % of control and the T/C (dose: 10.0 mg/kg/injection, schedule: Q01DX010 (ip), vehicle: saline) was 115 % of control.

In the case of `CCN=C1N[N+]2=CCCCC2S1` (configuration not stated), the T/C (dose: 35.0 mg/kg/injection, schedule: Q01DX009 (ip), vehicle: saline) is reported as 111 % of control and the T/C (dose: 140.0 mg/kg/injection, schedule: Q01DX009 (ip), vehicle: saline) is reported as 95 % of control.

With `COC(=O)C(CSCSC)NC(=O)/C=C\c1ccccc1` (configuration not stated) the T/C [16] was 100 % of control, the T/C [17] was 104 % of control and the T/C [3] was 95 % of control. For the same molecule, the T/C [18] was 109 % of control, the T/C (dose: 200.0 mg/kg/injection, schedule: Q04DX003 (ip), vehicle: saline with Tween-80) was 91 % of control and the T/C (dose: 400.0 mg/kg/injection, schedule: Q01DX009 (ip), vehicle: saline with Tween-80) was 90 % of control.

`Nc1ncnc2c1ncn2C1(CO)OC(CO)C(O)C1O` (configuration not stated) was tested, and the T/C [13] was 106 % of control, the T/C [14] was 115 % of control and the T/C [15] was 103 % of control.

`CC(=O)C1=CC2(OC3CCC(O)(C(=O)CO)C(C)O3)C(=O)c3c(cc4cccc(O)c4c3O)CC2C(O)C1O` (configuration not stated) was tested, and the T/C (dose: 19.0 mg/kg/injection, schedule: Q01DX010 (ip), vehicle: carboxymethylcellulose (CMC)) was 100 % of control, the T/C (dose: 38.0 mg/kg/injection, schedule: Q01DX010 (ip), vehicle: carboxymethylcellulose (CMC)) was 100 % of control and the T/C (dose: 75.0 mg/kg/injection, schedule: Q01DX010 (ip), vehicle: carboxymethylcellulose (CMC)) was 104 % of control. For the same molecule, the T/C (dose: 150.0 mg/kg/injection, schedule: Q01DX010 (ip), vehicle: carboxymethylcellulose (CMC)) was 104 % of control.
